These results are taken from article PMC10686828, “DMSOP-cleaving enzymes are diverse and widely distributed in marine microorganisms” (Nature Microbiology, 2023).

The subject of experiment [1] is T1, DddL.
T1 construct: pET-22b, C-terminal His tag, E. coli BL21(DE3)
The experiment in a line: HPLC of acrylate, initial rates, non-linear fit. Particulars: pH 8, 30 °C. Format: biochemical.

The target in experiment [2] is T2, DddY (Acinetobacter bereziniae) (Acinetobacter bereziniae, UniProt N8X9V6).
T2 construct: gene F963_02809; pET-22b, C-terminal His tag, E. coli BL21(DE3); Ni-NTA and gel filtration
T2 sequence (N8X9V6 22-401 limits assumed): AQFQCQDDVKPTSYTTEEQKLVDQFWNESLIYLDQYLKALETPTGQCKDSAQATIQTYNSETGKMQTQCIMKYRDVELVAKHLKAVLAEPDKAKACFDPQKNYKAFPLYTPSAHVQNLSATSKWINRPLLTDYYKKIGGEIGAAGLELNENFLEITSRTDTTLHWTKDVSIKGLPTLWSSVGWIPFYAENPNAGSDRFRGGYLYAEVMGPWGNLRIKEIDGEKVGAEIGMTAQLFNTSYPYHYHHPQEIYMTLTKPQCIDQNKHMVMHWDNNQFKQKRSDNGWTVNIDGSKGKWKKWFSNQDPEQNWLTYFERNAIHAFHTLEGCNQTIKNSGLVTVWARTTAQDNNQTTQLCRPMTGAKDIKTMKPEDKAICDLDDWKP
The experiment in a line: HPLC of DMSO and acrylate. Format: biochemical. Particulars: 5 mM DMSOP, pH 8.0, 30 °C.

One may read the Km as the substrate concentration at which the rate is half of its maximum. For `C[S+](C)(=O)CCC(=O)[O-]` [DMSOP], in experiment [1], the Michaelis constant (Km) was found to be 65 ± 10.9 mM. Besides, in experiment [2], the “HPLC of DMSO and acrylate” value was “purified DddY proteins yielded DMSO and acrylate from DMSOP”.
